Counter-ions that a name gives are not always drawn. Like-named read-outs stand apart in the source and are kept apart here.
Tested on: pulmonary artery of the guinea-pig
Assay: relaxation of guinea-pig potassium-depolarised pulmonary artery strips (inhibition of CaCl2-induced contraction)
Settings: Cavia porcellus, read-out: IC50 (concentration of the test substance which inhibits the contraction by 50%)
Source text: As a guanylate cyclase activator, nitrogen monoxide leads to an increase in cyclic guanosine monophosphate, which causes a relaxation in the smooth muscle and antiadhesive and antiaggregatory actions in the blood platelets. Nitrogen monoxide is additionally crucially involved in learning processes, in the regulation of the kidney function, in immune defence, in septic shock and in erectile dysfunctions. […] In this method, spiral strips of the pulmonary artery of the guinea-pig are depolarised using 40 mmol/l potassium after equilibration in calcium-free Tyrode solution. An addition of 0.5 mmol/l of CaCl2 then induces a contraction.

[1] = spiral strips depolarised with 40 mmol/l potassium, contraction by 0.5 mmol/l CaCl2, cumulative addition, average of 4 to 6 vessel strips

SMILES | IC50 [1] [nM] | IC50 [nM]
COC(=O)C[S+]([O-])c1no[n+]([O-])c1-c1ccccc1 (stereo not shown) [Compound 2, 3-Phenyl-4-(methoxycarbonylmethylsulphinyl)-1,2,5-oxadiazole-2-oxide] | 3000 | 
CCN(CC)CCS(=O)(=O)c1no[n+]([O-])c1-c1ccccc1 [Compound 5, 3-Phenyl-4-(2-diethylaminoethylsulphonyl)-1,2,5-oxadiazole-2-oxide] | 700 | 
CN(CCOc1no[n+]([O-])c1-c1ccccc1)Cc1ccccc1 [Compound 6, 3-Phenyl-4-(2-(N-benzyl-N-methylamino)ethoxy)-1,2,5-oxadiazole-2-oxide hydrochloride] | 4000 | 
CCCCS(=O)(=O)c1no[n+]([O-])c1-c1ccccc1 [Compound 9, 3-Phenyl-4-butylsulphonyl-1,2,5-oxadiazole-2-oxide] | 30 | 
O=S(=O)(CCO)c1no[n+]([O-])c1-c1ccccc1 [Compound 10, 3-Phenyl-4-(2-hydroxyethylsulphonyl)-1,2,5-oxadiazole-2-oxide] | 300 | 
[O-][n+]1onc(OCc2cccnc2)c1-c1ccccc1 [Compound 12, 3-Phenyl-4-(pyrid-3-ylmethoxy)-1,2,5-oxadiazole-2-oxide] | 3000 | 
NC(=O)C[S+]([O-])c1no[n+]([O-])c1-c1ccccc1 (stereo not shown) [Compound 19, 3-Phenyl-4-(aminocarbonylmethylsulphinyl)-1,2,5-oxadiazole-2-oxide] | 2000 | 
CCS(=O)(=O)c1no[n+]([O-])c1-c1ccccc1 [Compound 20, 3-Phenyl-4-ethylsulphonyl-1,2,5-oxadiazole-2-oxide] | 50 | 
O=[N+]([O-])O[C@@H]1CO[C@H]2[C@@H]1OC[C@@H]2O [Isosorbide-5-mononitrate, reference compound] |  | > 100000
CCOC(=O)[N-]c1cn(N2CCOCC2)n[o+]1 [Molsidomine, reference compound] | 300000 | 

Reference: patent US5389655A, “Phenylfuroxans” (Cassella AG, priority 1992, dated 1995)
